Results: patent publication US9724351B2, “Compounds for the treatment of paramoxyvirus viral infections” (priority 2012, dated 2017)

Tests used:
[1] = Cytotoxicity Determination; assay type: cell-based; conditions: human, HEp-2 cells, without addition of virus, CCK-8 readout, bins (Table 4: greater than 100 μM; Table 5: equal to or less than 100 μM and greater than 10 μM), read-out: 50% cytotoxicity concentration (CC50)
Description: In order to determine the compound cytotoxicity, in parallel, each of the compounds is applied to duplicate wells in a 384-well cell plate at serial final concentrations starting from 100 μM using ½ stepwise dilutions for 7 points without addition of virus. Incubate the cells at 37° C., 5% CO2 for 5 days. Add 6 μl CCK-8 into each well and incubate in a CO2 incubator at 37° C. for 3-4 hours. Read the plates to obtain the optical densities which are used to calculate 50% cytotoxicity concentration (CC50).

[2] = test system: Respiratory Syncytial Virus (RSV) long strain (ATCC#VR-26); assay: RSV Antiviral Assay (CPE reduction assay); assay type: cell-based; conditions: human respiratory syncytial virus, 120 h; HEp-2 cells infected with RSV long strain, 5 days, CCK-8 readout; bins (Table 2: less than 1 μM; Table 3: equal to or higher than 1 μM and less than 50 μM); read-out: 50% effective concentration (EC50)
Description: CPE reduction assays are performed as described by Sidwell and Huffman et al., Appl. Microbiol. (1971) 22(5):797-801 with slight modifications. HEp-2 cells (ATCC#, CCL-23) are seeded at a density of 1,500 cells/30 μl/well into the 384-well cell plate(s) (Corning#3701) one day prior to the assay. Compounds are added into 384-well cell plates by Labcyte POD 810 Plate Assembler system. Each of the test compounds is provided to duplicate wells of a 384-well cell plate at final concentrations starting from 100 μM or 1 μM using ⅓ stepwise dilutions for 9 points. Quick-thaw Respiratory Syncytial Virus (RSV) long strain (ATCC#VR-26) stock in a 37° C. water bath. Place on ice until ready to use. Viruses are diluted to the concentration of 100 TCID50/30 μl with medium and 30 μl diluted RSV are added into related wells of 384-well cell plates. For each plate, sixteen wells are set aside as uninfected, untreated cell controls (CC), and nine wells per test plate receive virus only as a control for virus replication (VC). The final DMSO concentration of all wells is 1%. Place the plates at 37° C., 5% CO2 for 5 days.
After 5 days incubation, observe the CPE of cells in all wells. […] Six μl of cell counting kit-8 reagent (CCK-8, Dojindo Molecular Technologies Inc., CK04-20) are added to each well, which allows colorimetric assays to determine the number of viable cells through the dehydrogenase activity detection. After 3-4 hour incubation, the absorbance of each well is measured with a spectrophotometric plate reader at 450 nm wavelength, using a 630 nm filter as background according to manufacturer's instruction. The 50% effective concentration (EC50) is calculated by using regression analysis, based on the mean O.D. at each concentration of compound.

Row | Compound | CC50 at 5 days [1] [µM] | EC50 [2] [µM]
1 | COc1ccc(C(=O)NCC(=O)c2nc(-c3csc4c(F)cccc34)n[nH]2)cc1OC [Compound 860] | 10 to 100 | 
2 | CCOc1ccc(C(=O)NCC(=O)NCC(=O)c2csc3c(F)cccc23)cc1OC [Compound 910] | 10 to 100 | 
3 | CCOc1ccc(C(=O)NCC(=O)NNC(=O)c2csc3cccnc23)cc1OC [Compound 902] | 10 to 100 | 
4 | COc1ccc(C(=O)NCC(=O)N/N=C(\C)c2cc(-c3ccccc3)sc2C)cc1OC [Compound 419] | 10 to 100 | 
5 | COc1cc(C(=O)NCC(=O)c2cccc(-c3csc4c(F)cccc34)n2)ccc1OCCN1CCOCC1 [Compound 1233] | 10 to 100 | 
6 | COc1ccc(C(=O)NCCC(=O)N/N=C(/C)c2csc3ccccc23)cc1OC [Compound 243] | > 100 | 
7 | COc1ccc(C(=O)NCC(=O)NN=C(c2cccs2)c2cccs2)cc1OC [Compound 431] | > 100 | 
8 | COc1ccc(C(=O)NCC(=O)Nc2cc3ccccc3c(=O)[nH]2)cc1OC [Compound 907] | > 100 | 
9 | COc1cc(C(=O)NCC(=O)N/N=C/c2csc3ccccc23)ccc1Cl [Compound 215] |  | 1 to 50
10 | COc1ccc(C(=O)NCC(=O)c2cc(=O)cc(-c3csc4c(F)cccc34)[nH]2)cc1OC [Compound 1222] | > 100 | 
11 | COc1ccc2c(c1)/C(=N/NC(=O)CNC(=O)c1ccc(OC)c(OC)c1)CC2 [Compound 424] | > 100 | 
12 | COc1ccc(CNCC(=O)N/N=C/c2csc3ccccc23)cc1OC [Compound 241] | 10 to 100 | 
13 | C#Cc1cc(C(=O)CNC(=O)c2ccc(OCCO)c(OC)c2)nc(-c2csc3c(F)cccc23)c1 [Compound 4216] |  | 1 to 50
14 | COc1ccc(C(=O)CCC(=O)c2cccc(-c3csc4c(F)cccc34)n2)cc1OC [Compound 1339] | 10 to 100 | 
15 | COc1ccc(C(=O)NCC(=O)c2nc(-c3csc4c(F)cccc34)co2)cc1OC [Compound 3201] | 10 to 100 | 
16 | CCOc1ccc(C(=O)NCCNC(=O)N(CCOC)c2csc3c(F)cccc23)cc1OC [Compound 1000] | > 100 | 
17 | COc1ccc(C(=O)NCC(=O)N/C=C/c2csc3ccccc23)cc1OC [Compound 4102] | 10 to 100 | 
18 | COc1ccc(C(=O)NN(C)C(=O)c2cccc(-c3csc4c(F)cccc34)n2)cc1OC [Compound 3102] | 10 to 100 | 
19 | COc1cc(C(=O)NCC(=O)c2ccc(OC)c(-c3ccc(F)c(Cl)c3)n2)ccc1OCC1(N)CC1 [Compound 1307] |  | 1 to 50
20 | CC(C)Oc1ccc(C(=O)NCC(=O)N/N=C/c2csc3ccccc23)cc1 [Compound 236] | 10 to 100 | 
21 | COc1ccc(C(=O)NCCc2nccc(-c3csc4c(F)cccc34)n2)cc1OC [Compound 1208] | > 100 | 
22 | COc1cc(C(=O)NCC(=O)c2cccc(-c3csc4c(F)cccc34)n2)ccc1OC1CCNCC1 [Compound 1231] | 10 to 100 | 

Row | Compound | CC50 at 5 days [1] [µM] | EC50 [2] [µM]
23 | CCOc1ccc(C(=O)NCC(=O)Nc2nc3cc(C(=O)OC)ccc3n2CCOC)cc1OC [Compound 912] | 10 to 100 | 
24 | COc1ccc(C(=O)NCC(=O)c2ncc(-c3csc4c(F)cccc34)n2C)cc1OC [Compound 2204] | 10 to 100 | 
25 | COc1cc(C(=O)CNC(=O)c2ccc(OC)c(OC)c2)nc(-c2csc3c(F)cccc23)n1 [Compound 1201] | > 100 | 
26 | COc1ccc(C(=O)NCC(=O)c2cncc(-c3csc4c(F)cccc34)n2)cc1OC [Compound 1219] | > 100 | 
27 | CCOc1ccc(C(=O)NCC(=O)Nc2nc3cc(C)ccc3n2CCOC)cc1OC [Compound 916] | > 100 | 
28 | COc1ccc(C(=O)NCC(=O)N/N=C(\C)c2csc3ccc(Br)cc23)cc1OC [Compound 432] | 10 to 100 | 
29 | COc1ccc(S(=O)(=O)NCC(=O)N/N=C(\C)c2csc3ccccc23)cc1OC [Compound 240] | 10 to 100 | 
30 | COc1ccc(C(=O)NCC(=O)N/N=C(\C)c2c(C)[nH]c3ccccc23)cc1OC [Compound 416] | 10 to 100 | 
31 | CCOc1ccc(C(=O)NCC(=O)Nc2nc3cc(F)ccc3n2CCOC)cc1OC [Compound 914] | > 100 | 
32 | CN(C)c1ccc(C(=O)NCC(=O)N/N=C/c2csc3ccccc23)cc1 [Compound 237] | 10 to 100 | 
33 | COc1ccc(C(=O)NCC(=O)N/N=C(\C)c2c(Br)sc3ccccc23)cc1OC [Compound 437] | 10 to 100 | 
34 | COc1ccc(C(=O)NC(C)C(=O)c2nc(-c3csc4c(F)cccc34)ccc2O)cc1OC (centres unmarked) [Compound 1304] | 10 to 100 | 
35 | CCOc1ccc(C(=O)NCC(=O)Nc2cc3ccccc3n2C)cc1OC [Compound 909] | > 100 | 
36 | COc1cc(C(=O)NCC(=O)c2cccc(-c3csc4c(F)cccc34)n2)ccc1OC1CCN(C)CC1 [Compound 1234] | 10 to 100 | 
37 | COc1ccc(C(=O)NCC(=O)N/N=C2\CCc3cc(OC)c(OC)cc32)cc1OC [Compound 421] | > 100 | 
38 | COc1ccc(C(=O)NCC(=O)Nc2nccc3ccccc23)cc1OC [Compound 906] | > 100 | 
39 | COc1cc(C(=O)NCC(=O)c2ccc(OC)c(-c3ccc(F)c(Cl)c3)n2)ccc1OCCO [Compound 1603] | > 100 | 
40 | COc1ccc(C(=O)NCC(=O)N/N=C(\C)c2csc3c2CCCC3)cc1OC [Compound 428] | > 100 | 
41 | COc1ccc(C(=O)NCC(=O)N/N=C(\C)c2nc3ccccc3s2)cc1OC [Compound 417] | 10 to 100 | 
42 | COc1ccc(C(=O)NCC(=O)N/N=C(\C)c2cnc3ccccc3c2)cc1OC [Compound 435] | > 100 | 
43 | COc1ccc(C(=O)NCC(=O)N/N=C2\CCc3ccccc32)cc1OC [Compound 425] | > 100 | 
44 | CCn1cc(-c2csc3c(F)cccc23)nc1C(=O)CNC(=O)c1ccc(OC)c(OC)c1 [Compound 1354] | 10 to 100 | 

Row | Compound | CC50 at 5 days [1] [µM] | EC50 [2] [µM]
45 | COc1ccc(C(=O)NCC(=O)N/N=C/c2csc3ccccc23)cc1 [Compound 101] | > 100 | 
46 | COc1ccc(C(=O)NCC(=O)N/N=C/c2csc(-c3ccccc3)c2)cc1OC [Compound 487] | 10 to 100 | 
47 | COc1ccc(C(=O)NCC(=O)N/N=C/c2cncc3ccccc23)cc1OC [Compound 412] | 10 to 100 | 
48 | COc1ccc(C(=O)NCCc2ccnc(-c3csc4c(F)cccc34)n2)cc1OC [Compound 1207] | > 100 | 
49 | COc1ccc(C(=O)Nc2cn(C)c3ccc(-c4csc5c(F)cccc45)nc3c2=O)cc1OC [Compound 2901] | > 100 | 
50 | CCOc1ccc(C(=O)NCC(=O)NCCc2csc3c(F)cccc23)cc1OC [Compound 908] | > 100 | 
51 | COc1ccc(C(=O)NCC(=O)N/N=C(\C)c2cccc3ccccc23)cc1OC [Compound 433] | 10 to 100 | 
52 | COc1ccc(C(=O)NCC(=O)c2coc(-c3csc4c(F)cccc34)n2)cc1OC [Compound 3200] | > 100 | 
53 | COc1ccc(CC(=O)NCC(=O)N/N=C(/C)c2csc3ccccc23)cc1OC [Compound 472] | 10 to 100 | 
54 | COc1ccc(C(=O)NCC(=O)Nc2ccc3c(-c4ccccc4)c[nH]c3c2)cc1OC [Compound 4104] | > 100 | 
55 | CCOc1ccc(C(=O)NCC(=O)Nc2nc3ccccc3n2CCOC)cc1OC [Compound 913] | > 100 | 
56 | COc1ccc(C(=O)NCC(=O)c2cnc(-c3csc4c(F)cccc34)n2C)cc1OC [Compound 2205] | > 100 | 
57 | Cc1ccc(/C=N/NC(=O)CNC(=O)c2ccccc2)o1 [Compound 119] | 10 to 100 | 
58 | CCOc1ccc(C(=O)NCC(=O)Nc2nc3ccc(F)c(F)c3n2CCOC)cc1OC [Compound 915] | > 100 | 
59 | COc1ccc(C(=O)NCC(=O)N/N=C(\C)c2csc(-c3ccccc3)c2)cc1OC [Compound 429] | > 100 | 
60 | COc1cc(C(=O)NCC(=O)N/N=C(\C)c2csc3ccccc23)ccn1 [Compound 473] | > 100 | 
61 | COc1ccc(C(=O)N(C)CC(=O)N/N=C(\C)c2csc3ccccc23)cc1OC [Compound 242] | > 100 | 
62 | COc1ccc(C(=O)NCC(=O)NNCCC(=O)c2csc3ccccc23)cc1OC [Compound 904] | > 100 | 
63 | COc1ccc(C(=O)NCc2nnc(-c3csc4ccccc34)o2)cc1OC [Compound 4103] | > 100 | 
64 | CCOc1ccc(C(=O)NCC(=O)N/N=C(\C)c2csc3cccnc23)cc1OC [Compound 465] | 10 to 100 | 
65 | COc1ccc(C(=O)NCC(=O)NN=C2Cc3ccccc3C2)cc1OC [Compound 420] | > 100 | 
